Data set [1] relates to PKD1^flox/flox; Tamoxifen-Cre mice. In kind it is in vivo. To be noted: BPTES 12.5 mg/kg IP BID, postnatal day 15-32, N=4, vs vehicle control. The procedure: FIG. 12A-C. […] Mice were sacrificed on day 32 and analyzed. (A) Scan of sagittal section of littermates treated with BPTES or vehicle control; (B) Kidney wt/body wt; (C) cystic index.
Cre recombinase was induced on postnatal day 10 by administering tamoxifen (10 mg/40 g) intraperitoneally (IP) on two consecutive days. […] Only same sexed mice from same litters were compared.
Early Models. PKD1^flox/flox; Tamoxifen-Cre Mice: The present inventors obtained the tamoxifen-Cre mouse model from G. Germino. For early onset disease, Cre recombinase is induced at day 10 by administering tamoxifen (10 mg/40 g) intraperitoneally (IP) on 2 consecutive days as described in FIG. 12 above and in Piontek et al. (2007, Nature medicine, 13: 1490-1495; the entire content of which is incorporated herein by reference).

Data set [2] has as its system Pkd1^fl/fl; Pkhd1-Cre mice. Description: Pkd1fl/fl; Pkhd1-Cre mouse model of ADPKD. Type of data set: in vivo. An excerpt:
As described in Karihaloo et al. (2011, J Am Soc Nephrol 22: 1809-1814), Pkd1^fl/fl; Pkhd1-Cre mice may be generated by crossing Pkd1fl/fl mice with Pkhd1-Cre mice13 so as to achieve kidney-specific deletion of the Pkd1 allele. See also Shibazaki et al. (2008, Hum Mol Genet 17, 1505-1516) and Patel et al. (2008, Hum Mol Genet 17, 1578-1590). The entire content of each of Karihaloo et al., Shibazaki et al., and Patel et al. is incorporated herein by reference.
Pkhd-Cre Mice: This is a very robust and reproducible early model of PKD. The Somlo lab has shown that Pkhd-cre expresses and deletes predominantly in collecting tubules Ma et al. (2013, Nature genetics, 45: 1004-1012; the entire content of which is incorporated herein by reference).

In data set [3] the test system is mTor. Description: Recruitment of mTor to lysosome, immunofluorescence with LAMP. In kind it is cell-based, human. To be noted: ADPKD cells refed with amino acids (QL). From the text: (A) Schematic depicting mTor activation, which is mediated by the recruitment of mTor to the lysosome. (B) ADPKD cells were stimulated as in FIG. 14 and then subjected to immunofluorescence analysis with antibodies to LAMP (lysosomal associated membrane protein) which stains lysosomes and mTor. Co-localization is shown by a yellow signal following the merging of the green mTor signal and the red LAMP signal. Refeeding with amino acids (QL) led to colocalization or recruitment of mTor to the lysosome as manifested by yellow staining in the merged image (compare −QL with +QL), which was abolished by treatment with BPTES.

Data set [4] deals with mTor. Description: mTOR activation by anti-phospho-S6 immunoblot after amino acid refeeding. Type of data set: cell-based, human. The conditions noted are these: ADPKD cells refed glutamine and lysine 30 or 60 minutes after 3 hours amino acid deprivation. The procedure: FIG. 14. […] Cells were then lysed and mTOR activation was assessed by immunoblotting with anti-phospho-S6 antibodies (pS6). To control for loading, the same samples were immunoblotted with antibodies to actin (Actin).

Data set [5] concerns ADPKD cells. Description: Intracellular ATP levels. In kind it is cell-based, human. To be noted: 24 hours. From the text: α-ketoglutarate also feeds directly into the tricarboxylic acid (TCA) cycle and therefore metabolism of α-ketoglutarate is an important source of ATP from glutamine.
The subject of data set [6] is ADPKD cells. Description: Seahorse analysis of ATP production and mitochondrial oxygen consumption. Type of data set: cell-based, human. As for the experimental part:
FIG. 13A-B. Seahorse analysis of ADPKD cells. ADPKD cells that were unstimulated or stimulated with forskolin in the presence or absence of BPTES and mitochondrial oxygen consumption was determined by seahorse analysis. (A) Schematic of the method and analysis. Oligomycin inhibits ATP synthase. FCCP is a mitochondrial uncoupler and leads to maximal OCR and rotenone interferes with electron transport. (B) Inhibition of ATP generation was also found by Seahorse analysis. ADPKD cells were unstimulated in the absence (C) or presence of BAPTES (B) or stimulated with forskolin in the absence (F) or presence of BPTES (FB).
The decreased generation of α-ketoglutarate, which feeds directly into tricarboxylic acid (TCA) would be predicted to lead to decreased TCA intermediates required for mitochondrial respiration and ATP generation. Seahorse analysis (Seahorse Biosciences) was performed on ADPKD cells that were either unstimulated or stimulated with forskolin in the presence or absence of BPTES.

Data set [7] relates to ADPKD cells. Description: Cyst formation of ADPKD cells plated in collagen, forskolin stimulated. Type of data set: cell-based, human. As for the experimental part:
FIG. 1. […] Images are at 10×. BF=bright field.
FIG. 2. Quantification of cyst size and cyst number in ADPKD cells incubated with or without BPTES. Total number of cysts in FIG. 1 was counted and stratified by cyst size. Asterisks indicate statistically significant findings.
FIG. 10. siRNA to Gls1 inhibits cyst formation of ADPKD cells. ADPKD cells were transfected with a control or siRNA to Gls1 and cyst formation was assessed. Number of cysts in control (blue), siRNA transfected cells (green), or siRNA transfected cells cultured with dimethyl α-ketoglutarate (red).
FIG. 10 depicts results from experiments using siRNA to Gls1 to determine the effects of same on cyst formation of ADPKD cells. […] The following are exemplary siRNA sequences used for inhibition of Gls1 […] (SEQ ID NO: 1); SASI_Hs01_00071573-[…][dT][dT] (SEQ ID NO: 2); 2260 NM_014905-[…] (SEQ ID NO: 3); SASI_Hs01_00071574-[…][dT][dT] (SEQ ID NO: 4); 1081 NM_014905-[…] (SEQ ID NO: 5).
The present inventors have made the surprising discovery that inhibiting glutaminase 1 (gls1) blocks cyst formation and proliferation by ADPKD cells. […] ADPKD cells were plated in collagen and stimulated with the cyclic 3′-5′-adenosine monophosphate (cAMP) agonist forskolin. […] The results are depicted graphically in FIG. 2, wherein the data were stratified according to both the number of observable cysts and their size.

The target of another data set is T1, GLS1 (Homo sapiens, UniProt O94925).
T1 sequence (O94925 55-669): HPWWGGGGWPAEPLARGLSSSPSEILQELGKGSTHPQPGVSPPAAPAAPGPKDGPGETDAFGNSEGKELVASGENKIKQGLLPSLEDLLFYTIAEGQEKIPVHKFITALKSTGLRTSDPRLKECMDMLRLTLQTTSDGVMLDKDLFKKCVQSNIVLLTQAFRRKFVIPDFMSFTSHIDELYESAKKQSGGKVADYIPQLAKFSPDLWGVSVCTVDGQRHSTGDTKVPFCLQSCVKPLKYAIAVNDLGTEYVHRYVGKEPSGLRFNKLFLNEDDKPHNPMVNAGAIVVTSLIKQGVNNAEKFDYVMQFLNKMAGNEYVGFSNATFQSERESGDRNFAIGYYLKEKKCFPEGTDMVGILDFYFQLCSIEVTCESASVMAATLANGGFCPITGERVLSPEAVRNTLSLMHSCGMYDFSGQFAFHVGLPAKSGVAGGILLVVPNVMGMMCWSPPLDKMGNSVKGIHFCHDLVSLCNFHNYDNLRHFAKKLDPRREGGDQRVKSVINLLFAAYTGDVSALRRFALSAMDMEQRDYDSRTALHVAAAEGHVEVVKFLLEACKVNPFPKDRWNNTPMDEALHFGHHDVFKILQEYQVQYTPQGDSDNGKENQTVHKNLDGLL
The conditions noted are these: dimeric vs tetrameric GLS1; cited from earlier work.

The conditions of data set [8]: cited from earlier work.
Data set [9] concerns ADPKD cells. Description: 8-bromo-cAMP stimulated proliferation, MTT assay. Type of data set: cell-based, human. The conditions noted are these: 8-bromo-cAMP + BPTES.
For data set [10], the system named is ADPKD cells. Description: Forskolin-induced proliferation, MTT assay. In kind it is cell-based, human. To be noted: co-culture of ADPKD cells with α-ketoglutarate. As for the experimental part: FIG. 3. […] Proliferation was then quantitated 24 hours later using the MTT assay kit (Promega).
Elevated intracellular concentration of cAMP is characteristic of ADPKD cells in vivo and mediates activation of signaling pathways that lead to proliferation of ADPKD cells. Gls1 is also critical for proliferation of ADPKD cells.

Setting [11] is: BPTES 12.5 mg/kg IP QOD, postnatal day 10-24, vs vehicle control.
The mark [12] stands for this setting: ADPKD cells in collagen, forskolin, cultured 2 weeks with or without BPTES.

SMILES strings stand for the structures.

For `O=C(Cc1ccccc1)Nc1nnc(CCSCCc2nnc(NC(=O)Cc3ccccc3)s2)s1` [BPTES], the cyst growth result in data set [1] is recorded as “statistically significant inhibition of cyst growth”. Further, in data set [2] (setting [11]), the cyst volume result was “significantly decreased” and the kidney size result was “significantly decreased”. In addition, in data set [2] (following BPTES administration), the kidney function result was “some preservation/restoration of kidney function was observed”. In the data set with mTor [3], the “colocalization or recruitment of mTor to the lysosome” value was “abolished”. Besides, the “mTor activation (pS6)” value in the data set on mTor [4] is given as “inhibits mTor activation”. The “intracellular ATP levels” value in the data set with ADPKD cells [5] is “significant decrease”. In the data set on ADPKD cells [6], the “basal and forskolin stimulated ATP production” value is “inhibited”; the “basal and forskolin stimulated mitochondrial O2 consumption” value is on record as “inhibited”. Besides, in the data set on ADPKD cells [7] (setting [12]), the number of cysts result is reported as “markedly reduces the number of cysts” and the size of cysts result is “profoundly decreases the size of those cysts that are formed”.

As to `CN(C)c1ccc(C2Nc3ccc4ccccc4c3C3=C2C(=O)CC(C)(C)C3)cc1Br` (stereo not shown) [compound 968, 5-(3-bromo-4-(dimethylamino)phenyl)-2,2-dimethyl-2,3,5,6-tetrahydrobenzo[a]phenanthridin-4(1H)-one], the “inhibition of GLS1 oligomeric forms” value on GLS1 is “only inhibits the nonactivated dimeric GLS1 and not the active tetramer”. Also, the aqueous solubility result in data set [8] is reported as “poor aqueous solubility”.

As for `COC(=O)CCC(=O)C(=O)OC` [dimethyl α-ketoglutarate], the “rescue of BPTES inhibition of proliferation” value in the data set with ADPKD cells [9] was “rescued the inhibition of proliferation”. Further, the “reversal of BPTES inhibition of proliferation” value in the data set with ADPKD cells [10] was “reversed the inhibition of proliferation by BPTES”. Also, the “rescue of cyst formation in siRNA transfected cells” value in the data set with ADPKD cells [7] (dimethyl α-ketoglutarate added to the medium) is listed as “statistically significant rescue of cyst formation”.

These data come from patent US9457016B2, “Methods for treating polycystic kidney disease” (New York University, priority 2013, dated 2016).
